Results: patent publication US8318774B2, “Compounds involving mGluR5 receptor regulation and methods of making the compounds” (Gruenenthal GmbH, priority 2006, dated 2012)

The compounds below were run against T1, mGluR5 receptor (pig) (Sus scrofa, UniProt I3LUI7) (assay: Inhibition of [3H]-MPEP binding in the mGluR5 receptor binding assay (pig brain homogenate)). Settings: 5 nM [3H]-MPEP, 60 min, room temperature, read-out: IC50 mGluR5 receptor (pig) [3H]-MPEP bonding.
T1 construct: 450 μg of protein from brain homogenate are incubated; from tissue; host or cells: pig brain halves without medulla, cerebellum and pons (homogenate, differential centrifugation)
Procedure: I. Method for Determining the Inhibition of the [^3H]-MPEP Binding in the mGluR5 Receptor Binding Assay
Pig brain homogenate is produced by the homogenisation (Polytron PT 3000, Kinematica AG, 10,000 rpm for 90 seconds) of pig brain halves without medulla, cerebellum and pons, in a buffer with pH 8.0 (30 mM Hepes, Sigma, order no. H3375+1 “Complete Tablet” to 100 ml, Roche Diagnostics, order no. 1836145) in the ratio 1:20 (brain weight/volume) and differential centrifuging at 900×g and 40,000×g. 450 μg of protein from brain homogenate are incubated in 250 μl incubation preparation in 96-well microtiter plates, for 60 minutes at room temperature in a buffer (as above), along with 5 nM ^3[H]-MPEP (Tocris, order no. […]
Subsequently, the preparations are filtered on unifilter plates with fibreglass filter mats (Perkin Elmer, order no. 6005177) using a Brandel Cell Harvester (Brandel, TYP Robotic 9600) and subsequently washed with buffer (as above) 3 times with 250 μl per sample in each case. The filter plates are subsequently dried for 60 min at 55° C. Subsequently 30 μl Ultima Gold™ scintillator (Packard Bioscience, order no. 6013159) are added to each well, and after 3 hours the samples are measured with the β-counter (Mikrobeta, Perkin Elmer). The non-specific binding is determined by adding 10 μM MPEP (Tocris, order no. 1212).

T1 sequence (I3LUI7 19-1212): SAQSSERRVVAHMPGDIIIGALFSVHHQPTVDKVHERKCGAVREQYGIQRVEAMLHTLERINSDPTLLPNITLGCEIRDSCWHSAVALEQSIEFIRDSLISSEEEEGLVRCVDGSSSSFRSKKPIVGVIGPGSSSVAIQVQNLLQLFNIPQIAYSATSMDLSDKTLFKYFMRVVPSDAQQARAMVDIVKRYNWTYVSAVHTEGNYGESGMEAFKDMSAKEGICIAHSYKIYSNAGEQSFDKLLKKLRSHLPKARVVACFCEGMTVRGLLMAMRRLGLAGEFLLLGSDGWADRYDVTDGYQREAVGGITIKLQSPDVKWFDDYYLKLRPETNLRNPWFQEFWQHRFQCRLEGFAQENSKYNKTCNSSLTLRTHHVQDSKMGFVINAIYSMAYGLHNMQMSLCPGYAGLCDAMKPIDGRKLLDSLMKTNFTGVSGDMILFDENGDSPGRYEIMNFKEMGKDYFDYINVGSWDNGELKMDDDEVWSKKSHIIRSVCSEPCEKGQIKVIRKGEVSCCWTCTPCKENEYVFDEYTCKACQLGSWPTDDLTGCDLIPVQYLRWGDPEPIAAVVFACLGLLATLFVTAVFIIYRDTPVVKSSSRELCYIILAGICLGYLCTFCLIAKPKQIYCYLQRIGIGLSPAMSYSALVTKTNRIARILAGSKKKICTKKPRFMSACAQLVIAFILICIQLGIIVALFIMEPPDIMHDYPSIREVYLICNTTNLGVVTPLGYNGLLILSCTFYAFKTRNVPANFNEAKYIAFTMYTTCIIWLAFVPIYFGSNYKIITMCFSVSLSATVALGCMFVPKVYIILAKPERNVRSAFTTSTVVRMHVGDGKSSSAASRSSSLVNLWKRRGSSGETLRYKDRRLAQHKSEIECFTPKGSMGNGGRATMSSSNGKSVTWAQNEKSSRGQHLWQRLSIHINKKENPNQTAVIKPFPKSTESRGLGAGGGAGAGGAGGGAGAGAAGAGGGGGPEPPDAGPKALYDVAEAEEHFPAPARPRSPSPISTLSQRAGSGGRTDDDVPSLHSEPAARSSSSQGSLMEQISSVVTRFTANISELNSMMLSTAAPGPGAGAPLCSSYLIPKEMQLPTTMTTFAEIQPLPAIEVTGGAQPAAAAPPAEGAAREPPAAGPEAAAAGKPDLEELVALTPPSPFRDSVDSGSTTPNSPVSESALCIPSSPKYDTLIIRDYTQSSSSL

| IC50 | SMILES |
| --- | --- |
| 0.99 µM | CN(CCCN(C)c1nccs1)C(=O)C#Cc1ccccc1 [Example 1] |
| 3.04 µM | O=C(C#Cc1ccccc1)N1CCC(Nc2nccs2)CC1 [Example 2, 4-(thiazol-2-yl-amino)-1-(3-phenyl-propiolyl)piperidine] |
| 4.46 µM | O=C(C#Cc1ccccc1)N1CC2CN(c3nccs3)CC2C1 (stereo not drawn) [Example 3, 3-(thiazol-2-yl)-7-(3-phenyl)-propiolyl-3,7-diaza-bicyclo[3.3.0]octane] |
| 4.22 µM | CN(c1nccs1)C1CCN(C(=O)C#Cc2ccccc2)CC1 [Example 4, 4-(methyl-thiazol-2-yl-amino)-1-(3-phenyl-propiolyl)piperidine] |
| 7.41 µM | O=C(C#Cc1ccccc1)NC1CCN(c2nccs2)CC1 [Example 5, 3-phenyl-N-(1-(thiazol-2-yl)piperidin-4-yl)propiolamide] |
| 1 µM | CN(C(=O)C#Cc1ccccc1)C1CCN(c2nccs2)CC1 [Example 6, N-methyl-3-phenyl-N-(1-(thiazol-2-yl)piperidin-4-yl)propiolamide] |

Same assay, conditions: 1 μM test compound, 5 nM [3H]-MPEP, 60 min, room temperature, read-out: % inhibition of mGluR5 receptor (pig) [3H]-MPEP bonding at 1 μM

| inhibition at 1 µM | SMILES |
| --- | --- |
| 36% | Cc1csc(N2CCC(NC(=O)C#Cc3ccccc3)CC2)n1 [Example 10, N-(1-(4-methyl-thiazol-2-yl)piperidin-4-yl)-3-phenyl-propiolamide] |
| 26% | COc1cccc(C#CC(=O)NC2CCN(c3nc(C)cs3)CC2)c1 [Example 11, N-(1-(4-methyl-thiazol-2-yl)piperidin-4-yl)-3-(3-methoxyphenyl)-propiolamide] |
| 22% | Cc1csc(N2CCC(NC(=O)C#Cc3ccccc3F)CC2)n1 [Example 16, 3-(2-fluoro-phenyl)-N-(1-(4-methyl-thiazol-2-yl)piperidin-4-yl)-propiolamide] |
| 39% | Cc1csc(N2CCC(NC(=O)C#Cc3ccc(C)c(F)c3)CC2)n1 [Example 20, 3-(3-fluoro-4-methyl-phenyl)-N-(1-(4-methyl-thiazol-2-yl)piperidin-4-yl)-propiolamide] |
| 32% | Cc1csc(N2CCC(NC(=O)C#Cc3cccc(C(F)(F)F)c3)CC2)n1 [Example 21, N-(1-(4-methyl-thiazol-2-yl)piperidin-4-yl)-3-(3-trifluoromethyl-phenyl)-propiolamide] |
| 79% | Cc1cccc(C#CC(=O)NC2CCN(c3nc(C)cs3)CC2)c1 [Example 22, N-(1-(4-methyl-thiazol-2-yl)piperidin-4-yl)-3-(3-tolyl)-propiolamide] |
